The results in this text go back to patent US9133209B2, “Insecticidal 4-amino-thieno[2,3-D]-pyrimidine compounds and methods of their use” (priority 2009, dated 2015).

Type in all cases: in vivo
The subject of experiment [1] is Spider Mite (Tetranychus spp.). As to the kind of experiment: Spider mite contact/oral activity on potted cotton plants. The conditions noted are these: for activity in [%]: Spider mite, 300 ppm, scale 0% no biological activity to 100% total control; for mortality at 300 ppm: Tetranychus, po, spider mites on potted cotton plants, sprayed, assessed after 24, 72 and 120 hours, read-out: mortality in comparison with untreated controls. How it is done: (§1) Under general conditions, if not otherwise specified, most test solutions are prepared as follow: The active compound is dissolved at the desired concentration in a mixture of 1:1 (vol:vol) distilled water:acetone. The test solution is prepared at the day of use.
(§2) Test solutions are prepared in general at concentrations of 1000 ppm, 500 ppm, 300 ppm, 100 ppm and 30 ppm (wt/vol).
B.2 Spider Mite (Tetranychus spp.)
Potted cotton plants colonized with approximately 50 mites of various stages are sprayed after the pest population has been recorded. Population reduction (or increase) after 24, 72, and 120 hours is assessed.

Experiment [2] relates to Rice Brown Plant Hopper (Nilaparvata lugens). As to the kind of experiment: Rice brown plant hopper test on sprayed rice seedlings. Particulars: for mortality at 300 ppm: Nilaparvata lugens adults on sprayed rice seedlings, 72 hours, read-out: mortality in comparison with untreated controls; for activity in [%]: Nilaparvata lugens, 300 ppm, scale 0% no biological activity to 100% total control. As to the method:
B.3 Rice Brown Plant Hopper (Nilaparvata lugens)
Rice seedlings were cleaned and washed 24 hours before spraying. The active compounds were formulated in 50:50 acetone:water (vol:vol) and 0.1% vol/vol surfactant (EL 620) was added. Potted rice seedlings were sprayed with 5 ml test solution, air dried, placed in cages and inoculated with 10 adults. Treated rice plants were kept at about 28-29° C. and relative humidity of about 50-60%. Percent mortality was recorded after 72 hours.

Experiment [3] concerns Cowpea Aphid (aphis craccivora). As to the kind of experiment: Cowpea aphid spray test on potted cowpea plants. The conditions noted are these: for mortality at 300 ppm: Aphis craccivora, cowpea aphid on potted cowpea plants, sprayed, assessed after 24, 72 and 120 hours, read-out: mortality in comparison with untreated controls; for activity in [%]: Cow pea aphid, 300 ppm, scale 0% no biological activity to 100% total control. How it is done:
as §1, §2
B.1 Cowpea Aphid (aphis craccivora)
Potted cowpea plants colonized with approximately 100-150 aphids of various stages were sprayed after the pest population has been recorded. Population reduction was assessed after 24, 72, and 120 hours.

In experiment [4] the test system is Yellow Fever Mosquito (Aedes aegypti) neonate larvae. As to the kind of experiment: Yellow fever mosquito larval motility assay in microtiter plates. As to the method: B.4. Activity Against Yellow Fever Mosquito (Aedes aegypti)
The compounds were formulated in 100% DMSO and were tested in microtiter plates containing 180 ul 1× Luria Broth media and 10 neonate A. aegypti larvae. The efficacy of a compound was determined based on the motility of the larvae as compared to average motility of control wells containing DMSO only. Compounds with >80% reduction in motility at a concentration of 10 ppm were tested in a dose response assay to determine EC50 values.

In experiment [5] the test system is Ctenocephalides felis fleas. As to the kind of experiment: Rat ectoparasiticide model (flea infestation, topical treatment). Particulars: for Efficacy in [%]: Ctenocephalides felis on rats; for reduction of flea counts (% efficacy): rats, topical, 48 hours post-treatment, average, n=2 replicas. How it is done:
B.5. Activity in Rat Ectoparasiticide Model
Rats were infested with 50 Ctenocephalides felis fleas. Approximately twenty four hours later rats (3 per group) were treated topically with test compounds at doses of 20 mg/kg or 10 mg/kg body weight. Placebo (vehicle) and positive control groups were included in each study. Forty eight hours post-treatment, fleas were collected from each rat using a flea comb. The percent efficacy per treatment group was calculated using the following formula: % efficacy=100×(C−T)/C
where C is the geometric mean of live fleas recovered in the placebo group and T is the geometric mean of live fleas recovered in the respective treatment group.

Molecules are shown by their SMILES. Bounds are passed on as bounds.

What is called mortality is the share of the test organisms that died. In the case of `CC(Nc1ncnc2scc(Cl)c12)c1ccc(SC(F)(F)F)cc1` (centres unmarked) [C.3], the “activity in [%]” value in experiment [1] is on record as 90%; in experiment [2] it was 100%; in experiment [3], 100%. Further, the mortality at 300 ppm in experiment [1], in experiment [2] and in experiment [3] was above 80% each time. Moreover, the “EC50 (section headed 'Activity at 1 [ppm]')” value in experiment [4] is 0.29 ppm.
`CC(Nc1ncnc2scc(Cl)c12)c1ccc([S+]([O-])C(F)(F)F)cc1` (centres unmarked) [C.4]: the mortality at 300 ppm in experiment [3] was above 80%.
Turning to `C[C@H](Nc1ncnc2scc(Cl)c12)c1ccc(OC(F)(F)F)cc1` [CE.2, reference compound], the “activity in [%]” value in experiment [1] is 50%. The entries for the “Efficacy in [%]” value in experiment [5] (dosage 10 mg/kg) and in experiment [5] (dosage 20 mg/kg) were 70% and 82%, respectively.
On to `CC(Nc1ncnc2scc(Cl)c12)c1ccc(SCC(F)(F)F)cc1` (centres unmarked) [C.5], for which the mortality at 300 ppm in experiment [3] was above 80%.
Turning to `C[C@H](Nc1ncnc2scc(Cl)c12)c1ccc(SC(F)(F)F)cc1` [C.3-S, (5-Chloro-thieno[2,3-d]pyrimidin-4-yl)-[(S)-1-(4-trifluoromethylsulfanyl-phenyl)-ethyl]-amine], the entries for the “activity in [%]” value in experiment [1], in experiment [2] and in experiment [3] were 90%, 100% and 100%, respectively. Besides, the “EC50 (section headed 'Activity at 1 [ppm]')” value in experiment [4] is listed as 0.21 ppm. The “Efficacy in [%]” value amounted to 71% in experiment [5] (dosage 10 mg/kg) and 89% in experiment [5] (dosage 20 mg/kg). Further, the “reduction of flea counts (% efficacy)” value in experiment [5] (10 mg/kg) amounted to 71%; in experiment [5] (20 mg/kg) it was 89%.
Turning to `C[C@@H](Nc1ncnc2scc(Cl)c12)c1ccc(SC(F)(F)F)cc1` [C.3-R], the “activity in [%]” value in experiment [1], in experiment [2] and in experiment [3] was 0% in each case.
In the case of `CC(Nc1ncnc2scc(Cl)c12)c1ccc(SC(F)F)cc1` (centres unmarked) [C.2], the mortality at 300 ppm in experiment [3] is above 80%.
The same measure, in the same setting: the same measure for `FC(F)(F)Sc1ccc(CNc2ncnc3scc(Cl)c23)cc1` [C.1]: above 80%.
As to `CSc1ccc(C(C)Nc2ncnc3scc(Cl)c23)cc1` (centres unmarked) [CE.1, reference compound], in experiment [2], the “activity in [%]” value is on record as 0%.
For the compound `CC(Nc1ncnc2scc(Cl)c12)c1ccc(SC(F)(F)C(F)(F)F)cc1` (centres unmarked) [C.6], the mortality at 300 ppm in experiment [1], in experiment [2] and in experiment [3] was above 80% each time.
